The values below are quoted from earlier work in patent US5891465A, “Delivery of biologically active material in a liposomal formulation for administration into the mouth” (BioZone Laboratories, Inc., priority 1996, dated 1999).

Structures are written as SMILES.

The conditions of data set [1]: tablet for absorption through the buccal mucosa.
For data set [2] the following is noted: tablets under the tongue.

With `C[C@]12CCC(=O)C=C1CC[C@@H]1[C@@H]2CC[C@@]2(C)[C@H]1CC[C@]2(C)O` [methyltestosterone], the “androgenic activity relative to oral tablets” value in data set [1] is reported as “twice the androgenic activity”.

As for `O=[N+]([O-])OCC(CO[N+](=O)[O-])O[N+](=O)[O-]` [nitroglycerin], in data set [2], the onset entry is given as “rapid onset”.
